From US20250051337A1 (priority 2021, published 2025)
Like-named read-outs stand apart in the source and are kept apart here.

Tests used:
STK3 = STK3 (Homo sapiens (Human), UniProt Q13188); assay: ADP-Glo kinase assay, STK3; format: biochemical
Description: (§1) The STK3 kinase assay was performed in 5 μL reaction buffer containing 50 ng recombinant human STK3 protein (full length, SignalChem #S24-10G; Richmond, Canada), 250 μg/mL myelin basic protein (Sigma-Aldrich #M1891; St. Louis, MO, USA), and 50 μM ATP (Sigma-Aldrich #A7699). The STK4 kinase assay was performed in 5 μL reaction buffer containing 50 ng recombinant human STK4 protein (full length, SignalChem #S25-10G), 300 μg/mL Axltide (SignalChem #A16-58), and 50 μM ATP. […] Three experiments were performed, each in triplicate.

STK4 = STK4 (Homo sapiens (Human), UniProt Q13043); assay: ADP-Glo kinase assay, STK4; format: biochemical
STK4, sequence (Q13043 whole entry): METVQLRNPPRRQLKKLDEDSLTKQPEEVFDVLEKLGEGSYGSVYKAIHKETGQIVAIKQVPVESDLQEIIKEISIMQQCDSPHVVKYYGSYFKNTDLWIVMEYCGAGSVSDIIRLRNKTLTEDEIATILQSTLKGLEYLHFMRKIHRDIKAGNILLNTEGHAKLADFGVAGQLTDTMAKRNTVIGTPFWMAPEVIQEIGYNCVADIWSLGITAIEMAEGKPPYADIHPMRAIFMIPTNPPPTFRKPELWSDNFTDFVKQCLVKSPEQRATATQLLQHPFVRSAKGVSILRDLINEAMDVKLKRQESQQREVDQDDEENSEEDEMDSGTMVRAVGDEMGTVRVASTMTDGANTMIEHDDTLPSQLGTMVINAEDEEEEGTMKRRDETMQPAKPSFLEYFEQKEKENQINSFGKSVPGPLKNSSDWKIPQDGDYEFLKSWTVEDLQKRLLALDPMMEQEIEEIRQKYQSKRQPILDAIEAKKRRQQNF
Description: as §1

[1] = ADP-Glo, 50 μM ATP, read-out: STK3 IC50
[2] = ADP-Glo, 50 μM ATP, read-out: STK4 IC50

STK3, sequence (Q13188 whole entry): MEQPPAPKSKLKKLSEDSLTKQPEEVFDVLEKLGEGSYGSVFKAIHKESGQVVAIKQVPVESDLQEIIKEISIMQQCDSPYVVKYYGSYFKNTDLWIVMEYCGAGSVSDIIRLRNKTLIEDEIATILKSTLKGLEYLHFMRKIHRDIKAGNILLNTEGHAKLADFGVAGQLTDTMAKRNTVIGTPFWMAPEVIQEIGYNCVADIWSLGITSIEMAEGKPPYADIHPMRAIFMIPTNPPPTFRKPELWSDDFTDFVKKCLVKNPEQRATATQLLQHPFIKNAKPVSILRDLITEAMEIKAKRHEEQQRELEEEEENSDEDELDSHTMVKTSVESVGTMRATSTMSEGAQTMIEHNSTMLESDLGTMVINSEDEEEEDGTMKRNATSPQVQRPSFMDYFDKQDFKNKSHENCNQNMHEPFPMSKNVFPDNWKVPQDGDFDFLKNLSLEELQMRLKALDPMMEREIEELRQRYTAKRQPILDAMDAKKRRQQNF

| IC50 (STK3; [1]) | IC50 (STK4; [2]) | SMILES | IC50 (STK3) | IC50 (STK4) |
| --- | --- | --- | --- | --- |
|  |  | Cc1ccc(-c2c[nH]c3ncnc(N4CCOCC4)c23)cc1 [Compound 9, 4-(5-(p-tolyl)-7H-pyrrolo[2,3-d]pyrimidin-4-yl)morpholine] | 1 to 5 µM |  |
|  |  | Clc1cccc(-c2n[nH]c3ncnc(N4CCOCC4)c23)c1 [Compound 19, 4-(3-(3-chlorophenyl)-1H-pyrazolo[3,4-d]pyrimidin-4-yl)morpholine] | 1 to 5 µM | 1 to 5 µM |
| 1 to 5 µM | 1 to 5 µM | Clc1ccccc1-c1c[nH]c2ncnc(N3CCOCC3)c12 [Compound 24, 4-(5-(2-Chlorophenyl)-7H-pyrrolo[2,3-d]pyrimidin-4-yl)morpholine] |  |  |
| < 1 µM | 1 to 5 µM | Clc1ccc(-c2c[nH]c3ncnc(N4CCOCC4)c23)cc1 [Compound 25, 4-(5-(4-Chlorophenyl)-7H-pyrrolo[2,3-d]pyrimidin-4-yl)morpholine] |  |  |
| 1 to 5 µM | < 1 µM | COc1ccc(-c2c[nH]c3ncnc(N4CCOCC4)c23)cc1 [Compound 26, 4-(5-(4-methoxyphenyl)-7H-pyrrolo[2,3-d]pyrimidin-4-yl)morpholine] |  |  |
| 1 to 5 µM | 1 to 5 µM | FC(F)(F)Oc1cccc(-c2c[nH]c3ncnc(N4CCOCC4)c23)c1 [Compound 27, 4-(5-(3-(trifluoromethoxy)phenyl)-7H-pyrrolo[2,3-d]pyrimidin-4-yl)morpholine] |  |  |
| 1 to 5 µM | 1 to 5 µM | FC(F)(F)Oc1ccc(-c2c[nH]c3ncnc(N4CCOCC4)c23)cc1 [Compound 28, 4-(5-(4-(trifluoromethoxy)phenyl)-7H-pyrrolo[2,3-d]pyrimidin-4-yl)morpholine] |  |  |
| > 5 µM | 1 to 5 µM | CC(=O)c1ccc(-c2c[nH]c3ncnc(N4CCOCC4)c23)cc1 [Compound 29, 1-(4-(4-morpholino-7H-pyrrolo[2,3-d]pyrimidin-5-yl)phenyl)ethan-1-one] |  |  |
| 1 to 5 µM | 1 to 5 µM | Clc1ccc(-c2c[nH]c3ncnc(N4CCOCC4)c23)cc1Cl [Compound 30, 4-(5-(3,4-dichlorophenyl)-7H-pyrrolo[2,3-d]pyrimidin-4-yl)morpholine] |  |  |
| 1 to 5 µM | 1 to 5 µM | Clc1cc(-c2c[nH]c3ncnc(N4CCOCC4)c23)ccn1 [Compound 31, 4-(5-(2-chloropyridin-4-yl)-7H-pyrrolo[2,3-d]pyrimidin-4-yl)morpholine] |  |  |
| > 5 µM | 1 to 5 µM | Fc1cnc(Cl)cc1-c1c[nH]c2ncnc(N3CCOCC3)c12 [Compound 32, 4-(5-(2-chloro-5-fluoropyridin-4-yl)-7H-pyrrolo[2,3-d]pyrimidin-4-yl)morpholine] |  |  |
| > 5 µM | > 5 µM | Fc1c(-c2c[nH]c3ncnc(N4CCOCC4)c23)ccnc1Cl [Compound 33, 4-(5-(2-chloro-3-fluoropyridin-4-yl)-7H-pyrrolo[2,3-d]pyrimidin-4-yl)morpholine] |  |  |
| > 5 µM | > 5 µM | Clc1ncccc1-c1c[nH]c2ncnc(N3CCOCC3)c12 [Compound 34, 4-(5-(2-chloropyridin-3-yl)-7H-pyrrolo[2,3-d]pyrimidin-4-yl)morpholine] |  |  |
| > 5 µM | > 5 µM | c1cc(-c2c[nH]c3ncnc(N4CCOCC4)c23)ccn1 [Compound 35, 4-(5-(pyridin-4-yl)-7H-pyrrolo[2,3-d]pyrimidin-4-yl)morpholine] |  |  |
| > 5 µM | > 5 µM | c1ncc(-c2c[nH]c3ncnc(N4CCOCC4)c23)cn1 [Compound 36, 4-(5-(pyrimidin-5-yl)-7H-pyrrolo[2,3-d]pyrimidin-4-yl)morpholine] |  |  |
| > 5 µM | > 5 µM | Cc1cnccc1-c1c[nH]c2ncnc(N3CCOCC3)c12 [Compound 37, 4-(5-(3-methylpyridin-4-yl)-7H-pyrrolo[2,3-d]pyrimidin-4-yl)morpholine] |  |  |
| > 5 µM | > 5 µM | COc1ncc(-c2c[nH]c3ncnc(N4CCOCC4)c23)cn1 [Compound 38, 4-(5-(2-methoxypyrimidin-5-yl)-7H-pyrrolo[2,3-d]pyrimidin-4-yl)morpholine] |  |  |
| > 5 µM | > 5 µM | CS(=O)(=O)c1cccc(-c2c[nH]c3ncnc(N4CCOCC4)c23)c1 [Compound 39, 4-(5-(3-(methylsulfonyl)phenyl)-7H-pyrrolo[2,3-d]pyrimidin-4-yl)morpholine] |  |  |
| > 5 µM | > 5 µM | CS(=O)(=O)c1ccc(-c2c[nH]c3ncnc(N4CCOCC4)c23)cc1 [Compound 40, 4-(5-(4-(methylsulfonyl)phenyl)-7H-pyrrolo[2,3-d]pyrimidin-4-yl)morpholine] |  |  |
| 1 to 5 µM | < 1 µM | Cn1cc(-c2c[nH]c3ncnc(N4CCOCC4)c23)cn1 [Compound 41, 4-(5-(1-methyl-1H-pyrazol-4-yl)-7H-pyrrolo[2,3-d]pyrimidin-4-yl)morpholine] |  |  |
| 1 to 5 µM | < 1 µM | c1nc(N2CCOCC2)c2c(-c3cnoc3)c[nH]c2n1 [Compound 42, 4-(5-(isoxazol-4-yl)-7H-pyrrolo[2,3-d]pyrimidin-4-yl)morpholine] |  |  |
| > 5 µM | > 5 µM | Cc1noc(C)c1-c1c[nH]c2ncnc(N3CCOCC3)c12 [Compound 43, 4-(5-(3,5-dimethylisoxazol-4-yl)-7H-pyrrolo[2,3-d]pyrimidin-4-yl)morpholine] |  |  |
| < 1 µM | < 1 µM | Clc1cccc(-c2c[nH]c3ncnc(N4CCCC4)c23)c1 [Compound 44, 5-(3-chlorophenyl)-4-(pyrrolidin-1-yl)-7H-pyrrolo[2,3-d]pyrimidine] |  |  |
| 1 to 5 µM | < 1 µM | CC(=O)N1CCN(c2ncnc3[nH]cc(-c4cccc(Cl)c4)c23)CC1 [Compound 45, 1-(4-(5-(3-chlorophenyl)-7H-pyrrolo[2,3-d]pyrimidin-4-yl)piperazin-1-yl)ethan-1-one] |  |  |
| 1 to 5 µM | 1 to 5 µM | Clc1cccc(-c2c[nH]c3ncnc(N4CCC4)c23)c1 [Compound 46, 4-(azetidin-1-yl)-5-(3-chlorophenyl)-7H-pyrrolo[2,3-d]pyrimidine] |  |  |
| 1 to 5 µM | 1 to 5 µM | CN1CCN(c2ncnc3[nH]cc(-c4cccc(Cl)c4)c23)CC1 [Compound 47, 5-(3-chlorophenyl)-4-(4-methylpiperazin-1-yl)-7H-pyrrolo[2,3-d]pyrimidine] |  |  |
| > 5 µM | > 5 µM | CCN1CCN(c2ncnc3[nH]cc(-c4cccc(Cl)c4)c23)CC1 [Compound 48, 5-(3-chlorophenyl)-4-(4-ethylpiperazin-1-yl)-7H-pyrrolo[2,3-d]pyrimidine] |  |  |
| < 1 µM | < 1 µM | CCNc1ncnc2[nH]cc(-c3cccc(Cl)c3)c12 [Compound 49, 5-(3-chlorophenyl)-N-ethyl-7H-pyrrolo[2,3-d]pyrimidin-4-amine] |  |  |

| SMILES | IC50 (STK3; [1]) | IC50 (STK4; [2]) | IC50 (STK3) | IC50 (STK4) |
| --- | --- | --- | --- | --- |
| c1ccc(-c2c[nH]c3ncnc(N4CCOCC4)c23)cc1 [Compound 1, 4-(5-Phenyl-7H-pyrrolo[2,3-d]pyrimidin-4-yl)morpholine] | < 1 µM | < 1 µM |  |  |
| Fc1ccccc1-c1c[nH]c2ncnc(N3CCOCC3)c12 [Compound 3, 4-(5-(2-Fluorophenyl)-7H-pyrrolo[2,3-d]pyrimidin-4-yl)morpholine] | < 1 µM |  |  |  |
| COc1ccccc1-c1c[nH]c2ncnc(N3CCOCC3)c12 [Compound 4, 4-(5-(2-Methoxyphenyl)-7H-pyrrolo[2,3-d]pyrimidin-4-yl)morpholine] | < 1 µM |  |  |  |
| COc1cccc(-c2c[nH]c3ncnc(N4CCOCC4)c23)c1 [Compound 8, 4-(5-(3-Methoxyphenyl)-7H-pyrrolo[2,3-d]pyrimidin-4-yl)morpholine] | < 1 µM |  |  |  |
| Fc1ccc(-c2c[nH]c3ncnc(N4CCOCC4)c23)cc1 [Compound 10, 4-(5-(4-Fluorophenyl)-7H-pyrrolo[2,3-d]pyrimidin-4-yl)morpholine] | < 1 µM |  |  |  |
| c1csc(-c2c[nH]c3ncnc(N4CCOCC4)c23)c1 [Compound 12, 4-(5-(Thiophen-2-yl)-7H-pyrrolo[2,3-d]pyrimidin-4-yl)morpholine] | < 1 µM |  |  |  |
| c1coc(-c2c[nH]c3ncnc(N4CCOCC4)c23)c1 [Compound 13, 4-(5-(Furan-2-yl)-7H-pyrrolo[2,3-d]pyrimidin-4-yl)morpholine] | < 1 µM |  |  |  |
| c1nc(N2CCOCC2)c2c(-c3ccoc3)c[nH]c2n1 [Compound 14, 4-(5-(Furan-3-yl)-7H-pyrrolo[2,3-d]pyrimidin-4-yl)morpholine] | < 1 µM |  |  |  |
| CN(C)c1ncnc2[nH]cc(-c3cccc(Cl)c3)c12 [Compound 17, 5-(3-Chlorophenyl)-N,N-dimethyl-7H-pyrrolo[2,3-d]pyrimidin-4-amine] | < 1 µM |  |  |  |
| Clc1cccc(-c2c[nH]c3ncnc(NCC4CC4)c23)c1 [Compound 18, 5-(3-Chlorophenyl)-N-(cyclopropylmethyl)-7H-pyrrolo[2,3-d]pyrimidin-4-amine] | < 1 µM |  |  |  |
| Clc1cccc(-c2csc3ncnc(N4CCOCC4)c23)c1 [Compound 20, 4-(5-(3-Chlorophenyl)thieno[2,3-d]pyrimidin-4-yl)morpholine] | > 5 µM |  |  |  |
| Clc1cccc(-c2coc3ncnc(N4CCOCC4)c23)c1 [Compound 21, 5-(3-Chlorophenyl)-4-morpholinofuro[2,3-d]pyrimidine] | > 5 µM |  |  |  |
| Clc1cccc(-c2c[nH]c3ccnc(N4CCOCC4)c23)c1 [Compound 22, 4-(3-(3-Chlorophenyl)-1H-pyrrolo[3,2-c]pyridin-4-yl)morpholin] | > 5 µM |  |  |  |
| CC1(O)CCN(c2ncnc3[nH]cc(-c4cccc(Cl)c4)c23)CC1 [Compound 103, 1-(5-(3-chlorophenyl)-7H-pyrrolo[2,3-d]pyrimidin-4-yl)-4-methylpiperidin-4-ol] | < 1 µM |  |  |  |
| CCN(CCO)c1ncnc2[nH]cc(-c3cccc(Cl)c3)c12 [Compound 114, 2-((5-(3-chlorophenyl)-7H-pyrrolo[2,3-d]pyrimidin-4-yl)(ethyl)amino)ethan-1-ol] | < 1 µM |  |  |  |
